Source: patent US9120779B2, “Inhibitors of HCV NS5A” (PRESIDIO PHARMACEUTICALS, INC., priority 2008, dated 2015)
Where two headings read alike, the source gives them in different places.

Tested on: HCV genotype 1b replicon in Huh 7 cells
Assay: HCV replicon assay (luciferase readout, 1b_Huh-Luc/Neo-ET cell line)
Format: cell-based
Details: Hepatitis C virus, Huh-7, 72 h
Outline: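 Inhibition expressed as percent of untreated control luciferase signal and fitted to a Hill-slope equation for EC50, with repeat determinations. Compounds were added in triplicate to Huh 7 cells stably expressing the genotype 1b luciferase replicon, with 72 h exposure.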

[1] = read-out: Inhibition of HCV genotype 1b, Table 3, 72 h incubation
[2] = read-out: Inhibition of HCV genotype 1b, Table 5, 72 h incubation

SMILES | EC50 [2] [nM] | further results
COC(=O)N[C@@H](C(=O)N1CCC[C@H]1c1ncc(-c2cc(F)c(N3CCC(c4cnc([C@@H]5CCCCN5C(=O)[C@H](NC(=O)C5CC5)c5ccccc5)[nH]4)CC3)c(F)c2)[nH]1)c1ccccc1 [compound 486] |  | EC50 [1]: < 1 nM
COC(=O)N[C@H](C(=O)N1CCC[C@H]1c1ncc(-c2ccc(C34CCC(c5cnc([C@@H]6CCCN6C(=O)[C@H](NC(=O)OC)c6ccccc6)[nH]5)(CC3)CC4)cc2)[nH]1)C(C)C [compound 624] | < 1 | 
COC(=O)N[C@H](C(=O)N[C@@H](C)c1ncc(-c2ccc(C34CCC(c5cnc([C@@H]6CCCN6C(=O)[C@@H](NC(=O)OC)C(C)C)[nH]5)(CC3)CC4)cc2)[nH]1)C(C)C [compound 2074] | < 1 | 
COC(=O)N[C@H](C)C(=O)N1CCC[C@H]1c1ncc(-c2ccc(C34CCC(c5cnc([C@@H]6CCCN6C(=O)[C@@H](C)NC(=O)OC)[nH]5)(CC3)CC4)cc2)[nH]1 [compound 917] | < 1 | 
CC(C)(C)OC(=O)N[C@@H](C(=O)N1CCC[C@H]1c1ncc(-c2ccc(C34CCC(c5cnc([C@@H]6CCCN6C(=O)[C@H](NC(=O)OC(C)(C)C)c6ccccc6)o5)(CC3)CC4)cc2)[nH]1)c1ccccc1 [compound 605] | 1 to 9.9 | 
CNC(=O)N[C@H](C(=O)N1CCC[C@H]1c1ncc(C23CCC(c4ccc(-c5cnc([C@@H]6CCCN6C(=O)[C@@H](NC(=O)OC)C(C)C)[nH]5)cc4)(CC2)CC3)[nH]1)C(C)C [compound 2099] | < 1 | 
COC(=O)N[C@H](C(=O)N1CCC[C@H]1c1ncc(C23CCC(c4ccc(-c5cnc([C@@H]6CCCN6C(=O)[C@@H](C)NC(=O)OC)[nH]5)cc4)(CC2)CC3)[nH]1)C(C)C [compound 2082] | < 1 | 
COC(=O)N[C@H](C(=O)N[C@@H](C)c1ncc(-c2cc(F)c(N3CCC(c4cnc([C@@H]5CCCN5C(=O)[C@@H](NC(=O)OC)C(C)C)[nH]4)CC3)c(F)c2)[nH]1)C(C)C [compound 519] |  | EC50 [1]: < 1 nM
COC(=O)N[C@H](C(=O)N1CCC[C@H]1c1nc2ccc(-c3ccc(-c4ccc5nc([C@@H]6CCCN6C(=O)[C@@H](NC(=O)OC)C6CCOCC6)[nH]c5c4)cc3)cc2[nH]1)C(C)C [compound 2040] |  | EC50 (read-out: Inhibition of HCV genotype 1b, Table 4, 72 h incubation): < 1 nM
